Among the data in patent US9199983B2, “3-aryl-6-aryl-[1,2,4]triazolo[4,3-α]pyridines as inhibitors of cell proliferation and the use thereof” (priority 2010, dated 2015) are IC50 values, retold here.

Structures can show the parent of a compound that is named as a salt.

Assay [1] concerns Human lung cancer cell line A549. Nature of the assay: MTT cancer cell cytotoxicity assay, A549. The class given is cell-based. As to conditions: A549 cells, 48-72 h. How it is done: (§1) Identification of 3-(2-methoxyphenyl)-6-(4-methoxyphenyl)-[1,2,4]triazolo[4,3-a]pyridine and analogs as inhibitors of cell proliferation that were evaluated with standard MTT cancer cell cytotoxicity assay (IC50)
(§2) Human lung cancer cell line A549, breast cancer cell line T47D, liver cancer cell lines HepG2 and SMMC7721 as well as a mouse melanoma cell line B16F10 were used in the study. The cells were cultured in corresponding growth media recommended by American Type Culture Collection (ATCC) with the supplementation of penicillin G (100 U/ml)/streptomycin (100 µg/ml), and 10% fetal bovine serum (Hangzhou Sijiqing Biological Engineering Materials, Co., Ltd. China) at 37° C. in a humidified atmosphere containing 5% CO2. Cells at about 80% confluency were harvested by trypsinization. Cells were centrifuged, re-suspended in fresh growth media and counted. Corresponding numbers of cells were seeded to 96-well cell culture plates (HepG2 cell, T-47D and A549 cells at 3000 cells/well, SMMC-7721 cells at 5000 cells/well and B16F10 cells at 2000 cells/well) in a total volume of […]. Cells were incubated in CO2 incubator over night to allow the cells to attach. In next day, […] of medium containing testing (from 10 μM to 1 nM) or reference compounds was added to each well of the cells. Media without compound were used as 100% control. Cells were treated with each concentration of compounds in triplicates to ensure data accuracy. Cells were incubated with compounds in CO2 incubator for an additional 48-72 h at 37° C. After incubation, cells were removed from the CO2 incubator and […] of 5 mg/ml MTT (3-(4,5-dimethylthiazole-2-yl)-2,5-diphenyltetrazoliumbromide, Sigma) solution in PBS was added to each well. Cells were returned to CO2 incubator and incubated for additional 4 h. After the incubation, media were removed by aspiration and […] DMSO was added to each well. Plates were sealed with aluminum foil and shaked mildly on an orbital shaker for 10 min at room temperature. The absorption was measured at 550 nm with a plate reader (Varioskan Flash, Thermo Fisher Scientific) with 660 nm reading used as background control. The relative absorbance readings were calculated by subtracting readings at 660 nm from that at 550 nm. The relative absorbance was plotted again the concentrations of the testing compounds and the plots were fitted with a one-site lg(IC50) equation using Prism 5 software (GraphPad Software, Inc). The equation used in the curve fitting is as follows: relative absorbance reading=background reading+(maximal reading−brackground reading)/(1+10 ^(compound concentration-log IC50)). The background reading used in the calculation was obtained with 100% cell death using a reference anticancer drug, whereas the maximal reading was obtained in the well with no added compound. The IC50 value calculated from the equation represents the cytotoxic potency of a particular compound.

Assay [2] has as its system liver cancer cell line HepG2. The assay can be described thus: MTT cancer cell cytotoxicity assay, HepG2. Format: cell-based, human. The conditions noted are these: HepG2 cells, 48-72 h. As to the method: as §1, §2
Assay [3] has as its system liver cancer cell line SMMC7721. The assay can be described thus: MTT cancer cell cytotoxicity assay, SMMC7721. Format: cell-based, human. The conditions noted are these: 48-72 h. How it is done:
as §1, §2

Assay [4] relates to breast cancer cell line T47D. Nature of the assay: MTT cancer cell cytotoxicity assay, T47D. The class given is cell-based, human. The conditions noted are these: T47D cells, 48-72 h. As to the method:
as §1, §2

For assay [5], the system named is mouse melanoma cell line B16F10. Nature of the assay: MTT cancer cell cytotoxicity assay, B16F10. Format: cell-based. As to conditions: 48-72 h. As to the method:
as §1, §2

The mark [6] stands for this setting: Homo sapiens, SMMC-7721, SMMC7721 cells.
Where [7] appears, read: Mus musculus, B16-F10, B16F10 cells.

As to `COc1cccc(-c2ccc3nnc(-c4ccccc4OC)n3c2)c1` [Example 2, 3-(2-Methoxyphenyl)-6-(3-methoxyphenyl)-[1,2,4]triazolo[4,3-a]pyridine], the IC50 in assay [1] (Homo sapiens) was determined as 252 nM; in assay [2] (Homo sapiens), 189 nM; in assay [3] (setting [6]), 79 nM; in assay [4] (Homo sapiens) it was 184 nM; in assay [5] (setting [7]) it was 152 nM.

On to `COc1ccccc1-c1ccc2nnc(-c3ccccc3OC)n2c1` [Example 3, 3,6-Bis(2-methoxyphenyl)-[1,2,4]triazolo[4,3-a]pyridine], for which the IC50 in assay [1] (Homo sapiens), in assay [2] (Homo sapiens), in assay [3] (setting [6]), in assay [4] (Homo sapiens) and in assay [5] (setting [7]) was > 10000 nM each time.

On to `COc1ccccc1-c1nnc2ccc(-c3ccc(OC(C)C)cc3)cn12` [Example 6, 6-(4-Isopropoxyphenyl)-3-(2-methoxyphenyl)-[1,2,4]triazolo[4,3-a]pyridine], for which the IC50 came out at 1060 nM in assay [1] (Homo sapiens); 1160 nM in assay [2] (Homo sapiens); 535 nM in assay [3] (setting [6]); 697 nM in assay [4] (Homo sapiens); 591 nM in assay [5] (setting [7]).

For `CCc1ccc(-c2ccc3nnc(-c4ccccc4OC)n3c2)cc1` [Example 7, 6-(4-Ethylphenyl)-3-(2-methoxyphenyl)-[1,2,4]triazolo[4,3-a]pyridine], the IC50 was 217 nM in assay [1] (Homo sapiens); 136 nM in assay [2] (Homo sapiens); 59 nM in assay [3] (setting [6]); 158 nM in assay [4] (Homo sapiens); 220 nM in assay [5] (setting [7]).

Take `COc1ccccc1-c1nnc2ccc(-c3ccc(OC(F)(F)F)cc3)cn12` [Example 11, 3-(2-Methoxyphenyl)-6-(4-trifluoromethoxyphenyl)-[1,2,4]trizolo[4,3-a]pyridine]: the IC50 in assay [1] was > 10000 nM; in assay [2] it was 5290 nM; in assay [3] (SMMC7721 cells), 2910 nM; in assay [4], > 10000 nM; in assay [5] (B16F10 cells), 5000 nM.

For `COc1ccccc1-c1nnc2ccc(-c3ccccc3)cn12` [Example 24, 3-(2-Methoxyphenyl)-6-phenyl-[1,2,4]triazolo[4,3-a]pyridine], the IC50 in assay [1] (Homo sapiens), in assay [2] (Homo sapiens), in assay [3] (setting [6]), in assay [4] (Homo sapiens) and in assay [5] (setting [7]) was > 10000 nM throughout.

`COc1ccccc1-c1nnc2ccc(-c3ccc(C(F)(F)F)cc3)cn12` [Example 27, 3-(2-Methoxyphenyl)-6-(4-trifluoromethylphenyl)-[1,2,4]triazolo[4,3-a]pyridine]: the IC50 came out at 9630 nM in assay [1] (Homo sapiens); 2640 nM in assay [2] (Homo sapiens); 2250 nM in assay [3] (setting [6]); 4260 nM in assay [4] (Homo sapiens); 3820 nM in assay [5] (setting [7]).

With `CCCCCCOc1ccc(-c2ccc3nnc(-c4ccccc4OC)n3c2)cc1` [Example 34, 6-(4-Hexyloxyphenyl)-3-(2-methoxyphenyl)-[1,2,4]triazolo[4,3-a]pyridine], the half-inhibitory concentration (IC50) in assay [1] (Homo sapiens), in assay [2] (Homo sapiens), in assay [3] (setting [6]), in assay [4] (Homo sapiens) and in assay [5] (setting [7]) was > 10000 nM in each case.

`CCOc1ccc(-c2ccc3nnc(-c4ccccc4OC)n3c2)cc1` [Example 38, 6-(4-Ethoxyphenyl)-3-(2-methoxyphenyl)-[1,2,4]triazolo[4,3-a]pyridine]: the half-maximal inhibitory concentration (IC50) came out at 49 nM in assay [1] (Homo sapiens); 80 nM in assay [2] (Homo sapiens); 27 nM in assay [3] (setting [6]); 74 nM in assay [4] (Homo sapiens); 129 nM in assay [5] (setting [7]).

For `COc1ccccc1-c1nnc2ccc(-c3ccc([N+](=O)[O-])cc3)cn12` [Example 39, 3-(2-Methoxyphenyl)-6-(4-nitrophenyl)-[1,2,4]triazolo[4,3-a]pyridine], the IC50 in assay [1] (Homo sapiens) is 3000 nM; in assay [2] (Homo sapiens), 3250 nM; in assay [3] (setting [6]) it was 5440 nM; in assay [4] (Homo sapiens) it was > 10000 nM; in assay [5] (setting [7]) it was > 10000 nM.

Take `COc1ccccc1-c1nnc2ccc(-c3ccc(OC)c([N+](=O)[O-])c3)cn12` [Example 40, 6-(4-Methoxy-3-nitrophenyl)-3-(2-methoxyphenyl)-[1,2,4]triazolo[4,3-a]pyridine]: the IC50 in assay [1] (Homo sapiens) was 2660 nM; in assay [2] (Homo sapiens), 2460 nM; in assay [3] (setting [6]) it was 72 nM; in assay [4] (Homo sapiens), 896 nM; in assay [5] (setting [7]), > 10000 nM.

With `COc1ccc(-c2ccc3nnc(-c4ccc(C(F)(F)F)cc4OC)n3c2)cc1` [Example 60, 3-(2-Methoxy-4-trifluoromethylphenyl)-6-(4-methoxyphenyl)-[1,2,4]triazolo[4,3-a]pyridine], the IC50 is 91 nM in assay [1] (Homo sapiens); 41 nM in assay [2] (Homo sapiens); 18 nM in assay [3] (setting [6]); 68 nM in assay [4] (Homo sapiens); 37 nM in assay [5] (setting [7]).

Consider `COc1ccc(-c2ccc3nnc(-c4cc(S(N)(=O)=O)ccc4OC)n3c2)cc1` [Example 75, 6-(4-Methoxyphenyl)-3-(2-methoxy-5-sulfamoylphenyl)-[1,2,4]triazolo[4,3-a]pyridine], for which the IC50 in assay [1] (Homo sapiens), in assay [2] (Homo sapiens), in assay [3] (setting [6]) and in assay [4] (Homo sapiens) was > 10000 nM throughout.

Regarding `COc1ccc(-c2ccc3nnc(-c4cc(C)ccc4OC)n3c2)cc1` [Example 76, 3-(2-Methoxy-5-methylphenyl)-6-(4-methoxyphenyl)-[1,2,4]triazolo[4,3-a]pyridine], the half-inhibitory concentration (IC50) in assay [1] (Homo sapiens) was found to be 533 nM; in assay [2] (Homo sapiens), 283 nM; in assay [3] (setting [6]), 104 nM; in assay [4] (Homo sapiens), 633 nM.

On to `COc1ccc(-c2ccc3nnc(-c4cccc(OC)c4)n3c2)cc1` [Example 77, 3-(3-Methoxyphenyl)-6-(4-methoxyphenyl)-[1,2,4]triazolo[4,3-a]pyridine], for which the IC50 stood at 4880 nM in assay [1] (Homo sapiens), 2210 nM in assay [2] (Homo sapiens), 962 nM in assay [3] (setting [6]) and 1950 nM in assay [4] (Homo sapiens).

As to `COc1ccc(-c2ccc3nnc(-c4ccccc4C)n3c2)cc1` [Example 78, 6-(4-Methoxyphenyl)-3-(2-methylphenyl)-[1,2,4]triazolo[4,3-a]pyridine], the half-inhibitory concentration (IC50) in assay [1] (Homo sapiens) worked out at 610 nM; in assay [2] (Homo sapiens) it was 264 nM; in assay [3] (setting [6]), 109 nM; in assay [4] (Homo sapiens), 129 nM.

As to `CNc1ccccc1-c1nnc2ccc(-c3ccc(OC)cc3)cn12` [Example 79, 6-(4-Methoxyphenyl)-3-(2-methylaminophenyl)-[1,2,4]triazolo[4,3-a]pyridine], the half-maximal inhibitory concentration (IC50) turned out to be 167 nM in assay [1] (Homo sapiens), 122 nM in assay [2] (Homo sapiens), 69 nM in assay [3] (setting [6]) and 73 nM in assay [4] (Homo sapiens).

Regarding `COc1ccc(-c2ccc3nnc(-c4ccccc4N(C)C)n3c2)cc1` [Example 80, 3-(2-Dimethylaminophenyl)-6-(4-methoxyphenyl)-[1,2,4]triazolo[4,3-a]pyridine], the IC50 in assay [1] (Homo sapiens) turned out to be 118 nM; in assay [2] (Homo sapiens), 81 nM; in assay [3] (setting [6]) it was 35 nM; in assay [4] (Homo sapiens), 62 nM.

On to `COc1ccc(-c2ccc3nnc(-c4cccnc4Cl)n3c2)cc1` [Example 85, 3-(2-Chloropyridin-3-yl)-6-(4-methoxyphenyl)-[1,2,4]triazolo[4,3-a]pyridine], for which the IC50 in assay [1] (Homo sapiens) is > 10000 nM; in assay [2] (Homo sapiens), 3870 nM; in assay [3] (setting [6]), 1890 nM; in assay [4] (Homo sapiens) it was 4340 nM.

As to `COc1ccc(-c2ccc3nnc(-c4cccnc4OC)n3c2)cc1` [Example 86, 6-(4-Methoxyphenyl)-3-(2-methoxypyridin-3-yl)-[1,2,4]triazolo[4,3-a]pyridine], the IC50 in assay [1] (Homo sapiens) turned out to be 41 nM; in assay [2] (Homo sapiens), 58 nM; in assay [3] (setting [6]), 32 nM; in assay [4] (Homo sapiens), 40 nM.

With `COc1ccc(-c2ccc3nnc(-c4ccc(N)cc4OC)n3c2)cc1` [Example 87, 3-(4-Amino-2-methoxyphenyl)-6-(4-methoxyphenyl)-[1,2,4]triazolo[4,3-a]pyridine hydrochloride], the 50% inhibitory concentration (IC50) in assay [1] (Homo sapiens) is 711 nM; in assay [2] (Homo sapiens), 356 nM; in assay [3] (setting [6]), 175 nM; in assay [4] (Homo sapiens), 308 nM.
